Laboratory results reported in publication PMC11926245, “Structural recognition and stabilization of tyrosine hydroxylase by the J-domain protein DNAJC12” (Nature Communications, 2025).

Key:
[1] = biological target: T1, TH:DNAJC12 complex (Homo sapiens, UniProt P07101); experiment: cryo-EM 3D reconstruction ([…] Å map); format: binding; settings: Fe(III)-catecholate complex; map EMD-18289, no PDB model deposited; regulatory helix 39-58 density at active sites
T1 construct: both full-length wild-type, each expressed in E. coli as HisMBP fusion, tags cut with TEV protease; with DnaJ homolog subfamily C member 12
T1 sequence (P07101 1-497 isoform P07101-3): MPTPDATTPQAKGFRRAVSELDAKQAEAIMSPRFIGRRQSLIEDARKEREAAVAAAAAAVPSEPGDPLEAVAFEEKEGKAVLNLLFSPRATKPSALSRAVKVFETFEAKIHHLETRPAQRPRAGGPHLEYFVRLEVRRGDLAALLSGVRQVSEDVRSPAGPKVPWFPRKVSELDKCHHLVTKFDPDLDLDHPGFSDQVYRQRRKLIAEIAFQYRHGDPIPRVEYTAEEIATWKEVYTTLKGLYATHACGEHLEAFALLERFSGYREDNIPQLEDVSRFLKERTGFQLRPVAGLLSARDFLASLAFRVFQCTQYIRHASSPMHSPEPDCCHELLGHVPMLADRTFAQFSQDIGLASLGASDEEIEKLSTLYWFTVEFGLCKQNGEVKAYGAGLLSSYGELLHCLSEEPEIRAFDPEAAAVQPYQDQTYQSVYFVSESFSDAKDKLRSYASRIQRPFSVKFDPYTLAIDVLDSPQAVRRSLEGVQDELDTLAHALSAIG
T1 sequence (Q9UKB3 whole entry partner, the tested form may be a part): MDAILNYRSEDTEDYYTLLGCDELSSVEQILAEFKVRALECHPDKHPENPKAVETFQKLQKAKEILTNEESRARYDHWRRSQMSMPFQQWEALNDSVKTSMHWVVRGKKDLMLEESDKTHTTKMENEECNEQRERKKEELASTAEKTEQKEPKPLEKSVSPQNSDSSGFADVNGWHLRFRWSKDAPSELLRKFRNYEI

[2] = biological target: T1, TH:DNAJC12 complex; experiment: differential scanning fluorimetry (SYPRO Orange); format: binding; settings: 0.23 µM TH:DNAJC12 complex, 9 µM DA, ferrous ammonium sulfate; stabilization
[3] = biological target: T2, TH (TH-WT, hTH1) (Homo sapiens, UniProt P07101); experiment: differential scanning fluorimetry (SYPRO Orange); format: binding; settings: 0.23 µM TH tetramer, 9 µM DA, ferrous ammonium sulfate; stabilization
T2 construct: full-length wild-type (C-terminal residue 497), expressed in E. coli as HisMBP fusion from pETMBP1a/hTH1, tags cut with TEV protease
T2 sequence (P07101 1-497 isoform P07101-3): as the sequence (P07101 1-497 isoform P07101-3) above

[4] = biological target: T1, TH:DNAJC12 complex; experiment: TH activity, L-Dopa quantified by HPLC with fluorescence detection; format: biochemical
[5] = biological target: T2, TH (TH-WT, hTH1); experiment: as above; format: biochemical

NCCc1ccc(O)c(O)c1 [dopamine]
cryo-EM 3D reconstruction (5.0 Å map) [1]: 3D reconstruction of TH:DNAJC12 in the presence of the feedback inhibitor DA (TH(DA):DNAJC12)
Tm [2]: we also observed a Tm increase for the TH:DNAJC12 complex in the presence of DA
Tm [3]: adding equimolar amounts of DA (per TH subunit) increased the Tm of TH
IC50 [4]: 356 ± 103 nM
IC50 [5]: 363 ± 82 nM
